Reference: patent US11865103B2, “Methods of treating disorders associated with glycosylation defective proteins” (CASE WESTERN RESERVE UNIVERSITY, priority 2016, dated 2024)

Test system: hCLRN1^N48K-YFP
Assay: Hair bundle localization of hCLRN1^N48K-YFP (YFP intensity) in neuromast hair cells of live larvae treated with SERCA inhibitors
Format: in vivo, zebrafish
Design: key to YFP intensity in the bundle compared to untreated control / YFP intensity, post-exposure hair cell body hCLRN1N48K aggregates recovery: “—” = The YFP intensity in the bundle is similar to untreated control.; “+” = The YFP intensity in the bundle is higher compared to untreated control
Settings: for Hair bundles with strong expression of hCLRN1^N48K-YFP protein / Increase in trafficking of hCLRN1^N48K to the hair bundle: 1 μM TG or 0.4 μM ART; for Hair bundles with strong expression of hCLRN1^N48K-YFP protein: untreated <5%, FIG. 4I; for Cumulative average of YFP intensity in the ROI in hair bundles (Mean±SEM) / Increase in trafficking of hCLRN1^N48K to the hair bundle: hCLRN1^N48K-YFP, clrn1^+/+ larvae; for Cumulative average of YFP intensity in the ROI in hair bundles (Mean±SEM): 1 uM TG or 0.4 uM ART + 0.01% DMSO in E3 medium, untreated 5.927±0.32; for Increase in trafficking of hCLRN1^N48K to the hair bundle: versus untreated
Description: hCLRN1-YFP predominantly localize to the hair bundle and a weak expression in the hair cell membrane in the transgenic hCLRN1-YFP; clrn1^+/+ zebrafish line, and the human pathogenic variant hCLRN1^N48K-YFP mislocalized in the endoplasmic reticulum (ER) with a small amount manages to get trafficked to the hair bundle of the transgenic hCLRN1^N48K-YFP; clrn1^+/+ zebrafish larvae. A relative quantification of YFP fluorescence intensity was carried-out to compare the quantity of hCLRN1^N48K-YFP that manages to localize in the hair bundle to the hCLRN1-YFP in the hair bundle. To quantify the YFP fluorescence intensity, unadjusted 1 micron middle section images of four hair bundles per neuromast were analyzed in Image J. Fluorescence intensity is reported as the background subtracted Integrated Density value. While Confocal microscopy imaging of neuromast hair bundles from the above mentioned groups, YFP fluorescence channel was unadjusted between siblings from the tested groups, and images chosen for figures were near the mean of the group data. Z-stack image of neuromast hair cells were captures using SP2 confocal microscope and the YFP fluorescence measurements in the hair bundles from 1) control uninjected and 2) unconventional secretory pathway cargo injected groups were obtained using ImageJ. A triangle shaped region of interest covering the area of hair bundle in 1 micron thickness middle section of z-stack image of neuromast hair cells was used to obtain YFP fluorescence pixel intensity measurements (Ihair bundle) and an area without hair cells (Ibackground) in the same image. Fluorescence intensity of YFP (Iload) for each hair bundle in a given neuromast was normalized (Iload=Ihair bundle−Ibackground). We analyzed 4 hair bundle per neuromast per larva, and the YFP fluorescence intensity per neuromast was represented as average of 4 hair bundle YFP intensity (IAvg. load=[…] in a neuromast/larva). And the mean of the total IAvg. load per group was considered for statistical comparison between groups. Student's t-test was used to confirm the observed changes in the YFP intensity in the hair bundles of hGRASP55 mRNA injected compared to hSNX27 mRNA injected and uninjected is significant.
Thapsigargin (TG, 1 mg, Sigma-Aldrich, #T9033) stock in 100% DMSO was diluted in E3 medium to make the required final concentration of the drug. Five different concentrations that were earlier reported to induce ER stress and are non-toxic or lower lethal dose (LD50) in the zebrafish (0.1, 0.5, 1.0, 2.5, 5 μM concentrations) were used in this study. A total of 25 larvae per dosage and treatment duration from the genotypes hCLRN1^N48K-YFP; clrn1^+/+ and hCLRN1-YFP; clrn1^+/+, no older than 72 hours post fertilization (hpf) at the start of the experiment, were placed in a well of 12-well uncoated culture plate (BD Falcon, Canaan, CT). For ER stress induction, larvae were incubated in different dosage of TG from 1 hr to overnight at 28.5° C., followed by three times wash with E3 medium at 28.5° C. (Table 2) and hair cells from the hCLRN1^N48K-YFP; clrn1^+/+ and hCLRN1-YFP; clrn1^+/+ lines were examined for the respective protein distribution pattern in the hair cell bundle and the cell body. Live confocal images of ‘O’ and ‘ML1’ neuromasts per larvae were capture using Leica SP2 confocal microscope with 40× oil immersion objective. Unadjusted 1 micron middle section images of four hair bundles per ML1 neuromast of larvae from TG treated and untreated groups were analyzed using Image J software version v. 1.48 (FIG. 4). The hair bundle trafficked amount of hCLRN1^N48K protein corresponds to the change in YFP intensity in the hair bundle in the TG treated larvae. Quantification of YFP fluorescence intensity was carried out as described in the previous experiment for unconventional trafficking of hCLRN1^N48K-YFP by hGRASP55 cargos. […]

With `C[C@@H]1CC[C@H]2[C@@H](C)C(=O)O[C@@H]3O[C@@]4(C)CC[C@@H]1[C@]32OO4` [ART, Artemisinin] the “Hair bundles with strong expression of hCLRN1^N48K-YFP protein” value was 76%, the “YFP intensity in the bundle compared to untreated control” value (ART 0.1 μM, exposure 1 h) was “—” and the “YFP intensity in the bundle compared to untreated control” value (ART 0.1 μM, exposure 2 h) was “—”. The “YFP intensity in the bundle compared to untreated control” value (ART 0.1 μM, exposure 4 h) was “—”, the “YFP intensity in the bundle compared to untreated control” value (ART 0.1 μM, exposure 6 h) was “—” and the “YFP intensity in the bundle compared to untreated control” value (ART 0.1 μM, exposure 8 h) was “—”. For the same compound, the “YFP intensity in the bundle compared to untreated control” value (ART 0.1 μM, exposure 10 h) was “—”, the “YFP intensity, post-exposure hair cell body hCLRN1N48K aggregates recovery” value (ART 0.1 μM, post-exposure recovery time 10 h) was “—” and the “YFP intensity, post-exposure hair cell body hCLRN1N48K aggregates recovery” value (ART 0.1 μM, post-exposure recovery time 24 h) was “—”. For the same compound, the “YFP intensity, post-exposure hair cell body hCLRN1N48K aggregates recovery” value (ART 0.1 μM, post-exposure recovery time 48 h) was “—”, the “YFP intensity in the bundle compared to untreated control” value (ART 0.25 μM, exposure 1 h) was “—” and the “YFP intensity in the bundle compared to untreated control” value (ART 0.25 μM, exposure 6 h) was “—”. The “YFP intensity in the bundle compared to untreated control” value (ART 0.25 μM, exposure 10 h) was “—”, the “YFP intensity, post-exposure hair cell body hCLRN1N48K aggregates recovery” value (ART 0.25 μM, post-exposure recovery time 10 h) was “—” and the “YFP intensity, post-exposure hair cell body hCLRN1N48K aggregates recovery” value (ART 0.25 μM, post-exposure recovery time 24 h) was “—”. For the same compound, the “YFP intensity, post-exposure hair cell body hCLRN1N48K aggregates recovery” value (ART 0.25 μM, post-exposure recovery time 48 h) was “—”, the “YFP intensity in the bundle compared to untreated control” value (ART 0.4 μM, exposure 1 h) was “—” and the “YFP intensity in the bundle compared to untreated control” value (ART 0.4 μM, exposure 2 h) was “—”. For the same compound, the “YFP intensity in the bundle compared to untreated control” value (ART 0.4 μM, exposure 6 h) was “+”, the “Cumulative average of YFP intensity in the ROI in hair bundles (Mean±SEM)” value was 31.04±1.25 and the “Increase in trafficking of hCLRN1^N48K to the hair bundle” value was 5 folds.
For `C/C=C(/C)C(=O)O[C@H]1C(C)=C2[C@H]([C@@H]1OC(=O)CCCCCCC)[C@@](C)(OC(C)=O)C[C@H](OC(=O)CCC)[C@@]1(O)[C@H]2OC(=O)[C@@]1(C)O` [TG, Thapsigargin], the “Hair bundles with strong expression of hCLRN1^N48K-YFP protein” value was 38%, the “YFP intensity in the bundle compared to untreated control” value (TG 0.1 μM, exposure 1 h) was “—” and the “YFP intensity in the bundle compared to untreated control” value (TG 0.1 μM, exposure 2 h) was “—”. For the same compound, the “YFP intensity in the bundle compared to untreated control” value (TG 0.1 μM, exposure 3 h) was “—”, the “YFP intensity in the bundle compared to untreated control” value (TG 0.1 μM, exposure 4 h) was “—” and the “YFP intensity in the bundle compared to untreated control” value (TG 0.1 μM, exposure 8 h) was “—”. For the same compound, the “YFP intensity in the bundle compared to untreated control” value (TG 0.1 μM, exposure 16 h) was “—”, the “YFP intensity in the bundle compared to untreated control” value (TG 0.5 μM, exposure 1 h) was “—” and the “YFP intensity in the bundle compared to untreated control” value (TG 0.5 μM, exposure 2 h) was “—”. The “YFP intensity in the bundle compared to untreated control” value (TG 0.5 μM, exposure 3 h) was “—”, the “YFP intensity in the bundle compared to untreated control” value (TG 0.5 μM, exposure 4 h) was “—” and the “YFP intensity in the bundle compared to untreated control” value (TG 0.5 μM, exposure 8 h) was “—”. For the same compound, the “YFP intensity in the bundle compared to untreated control” value (TG 1.0 μM, exposure 1 h) was “—”, the “YFP intensity in the bundle compared to untreated control” value (TG 1.0 μM, exposure 2 h) was “—” and the “YFP intensity in the bundle compared to untreated control” value (TG 1.0 μM, exposure 3 h) was “+”. The “Rescue of mutant protein to the hair bundle” value (TG dosages lower than 1 μM) was “inefficient in rescuing mutant protein”, the “Cumulative average of YFP intensity in the ROI in hair bundles (Mean±SEM)” value was 18.59±0.87 and the “Increase in trafficking of hCLRN1^N48K to the hair bundle” value was 3 folds.
